Reference: patent publication US20080171732A1, “New Pyridine Analogues IX 519” (AstraZeneca AB, priority 2007, published 2008)

Target: T1, P2Y12 receptor (Homo sapiens, UniProt Q9H244)
T1 construct: expressed in transfected cells; host or cells: CHO cells (membranes)
Test: Functional inhibition of 2-Me-S-ADP induced P2Y12 signalling (35S-GTPγS, cell membranes from P2Y12 transfected CHO-cells)
Type: biochemical
Conditions: EC80 concentration of agonist 2-methyl-thio-adenosine diphosphate, 30° C., 45 min
Procedure: Functional inhibition of-the P2Y12 receptor can be measured by in vitro assays using cell membranes from P2Y12 transfected CHO-cells, the methodology is indicated below.
(§1) Functional inhibition of 2-Me-S-ADP induced P2Y12 signalling: 5 μg of membranes were diluted in 200 μl of 200 mM NaCl, 1 mM MgCl2, 50 mM HEPES (pH 7.4), 0.01% BSA, 30μg/ml saponin and 10 μM GDP. To this was added an EC80 concentration of agonist (2-methyl-thio-adenosine diphosphate), the required concentration of test compound and 0.1 μCi ^35S-GTPγS. The reaction was allowed to proceed at 30° C. for 45 min. Samples were then transferred on to GF/B filters using a cell harvester and washed with wash buffer (50 mM Tris (pH 7.4), 5 mM MgCl2, 50 mM NaCl). Filters were then covered with scintilant and counted for the amount of ^35S-GTPγS retained by the filter. Maximum activity was that determined in the presence of the agonist and minimum activity in the absence of the agonist following subtraction of the value determined for non-specific activity. The effect of compounds at various concentrations was plotted according to the equation
y=A+((B−A)/(1+((C/x)̂D)))
and IC50 estimated where • A is the bottom plateau of the curve i.e. the final minimum y value • B is the top of the plateau of the curve i.e. the final maximum y value • C is the x value at the middle of the curve. This represents the log EC50 value when A+B=100 • D is the slope factor. • x is the original known x values. • Y is the original known y values.
as §1, with “30 μg/ml” for “30μg/ml”, “0. 1” for “0.1”

T1 sequence (Q9H244 whole entry): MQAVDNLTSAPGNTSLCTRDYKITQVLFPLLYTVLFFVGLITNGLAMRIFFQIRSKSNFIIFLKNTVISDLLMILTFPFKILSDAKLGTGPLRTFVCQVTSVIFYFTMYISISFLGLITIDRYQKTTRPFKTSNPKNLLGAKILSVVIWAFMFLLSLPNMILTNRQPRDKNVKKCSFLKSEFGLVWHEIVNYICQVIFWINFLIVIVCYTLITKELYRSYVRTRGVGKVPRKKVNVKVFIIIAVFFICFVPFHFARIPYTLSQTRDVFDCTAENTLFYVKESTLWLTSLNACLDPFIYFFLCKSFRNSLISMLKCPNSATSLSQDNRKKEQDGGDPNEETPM

SMILES | IC50 [µM]
CCCC(=O)c1cc(C#N)c(N2CCC(C(=O)NS(=O)(=O)Cc3ccc(F)cc3)CC2)nc1OC [Example 51, 1-(5-Butyryl-3-cyano-6-methoxypyridin-2-yl)-N-[(4-fluorobenzyl)sulfonyl]piperidine-4-carboxamide] | 0.05
CCOC(=O)c1cc(F)c(N2CCC(C(=O)NS(=O)(=O)Cc3ccccc3)CC2)nc1SC [Example 44, Ethyl6-{4-[(benzylsulfonyl)carbamoyl]piperidin-1-yl}-5-fluoro-2-(methylthio)nicotinate] | 0.042
CCCC(=O)c1cc(C#N)c(N2CCC(C(=O)NS(=O)(=O)Cc3ccc(Cl)cc3)CC2)nc1OC [Example 52, 1-(5-Butyryl-3-cyano-6-methoxypyridin-2-yl)-N-[(4-chlorobenzyl)sulfonyl]piperidine-4-carboxamide] | 0.055
CCOC(=O)c1cc(C#N)c(N2CCC(C(=O)NS(=O)(=O)Cc3ccccc3)CC2)nc1SC [Example 58, Ethyl6-{4-[(benzylsulfonyl)carbamoyl]piperidin-1-yl}-5-cyano-2-(methylthio)nicotinate] | 0.0077
CCOC(=O)c1cc(C#N)c(N2CC(C(=O)NS(=O)(=O)Cc3ccccc3)C2)nc1SC [Example 57, Ethyl6-{3-[(benzylsulfonyl)carbamoyl]azetidin-1-yl}-5-cyano-2-(methylthio)nicotinate] | 0.018
CCOC(=O)c1cc(C#N)c(N2CCC(C(=O)NS(=O)(=O)Cc3ccccc3)CC2)nc1CO [Example 6, Ethyl6-{4-[(benzylsulfonyl)carbamoyl]piperidin-1-yl}-5-cyano-2-(hydroxymethyl)nicotinate] | 0.017
COc1nc(N2CCC(C(=O)NS(=O)(=O)Cc3ccc(F)cc3)CC2)c(C#N)cc1C(=O)OC(C)C [Example 56, Isopropyl5-cyano-6-(4-{[(4-fluorobenzyl)sulfonyl]carbamoyl}piperidin-1-yl)-2-methoxynicotinate] | 0.025
CCOC(=O)c1cc(C#N)c(N2CCC(C(=O)NS(=O)(=O)Cc3ccccc3)CC2)nc1SCC [Example 4, Ethyl6-{4-[(benzylsulfonyl)carbamoyl]piperidin-1-yl}-5-cyano-2-(ethylthio)nicotinate] | 0.006
CCOC(=O)c1cc(C#N)c(N2CCC(C(=O)NS(=O)(=O)Cc3ccc(F)cc3)CC2)nc1OC [Example 11, Ethyl5-cyano-6-(4-{[(4-fluorobenzyl)sulfonyl]carbamoyl}piperidin-1-yl)-2-methoxynicotinate] | 0.009
CCOC(=O)c1cc(C#N)c(N2CCC(C(=O)NS(=O)(=O)Cc3cccc(F)c3)CC2)nc1OC [Example 10, Ethyl5-cyano-6-(4-{[(3-fluorobenzyl)sulfonyl]carbamoyl}piperidin-1-yl)-2-methoxynicotinate] | 0.016
CC(C)OC(=O)c1cc(C#N)c(N2CCC(C(=O)NS(=O)(=O)Cc3ccccc3)CC2)nc1C#N [Example 50, Isopropyl6-{4-[(benzylsulfonyl)carbamoyl]piperidin-1-yl}-2,5-dicyanonicotinate] | 0.016
CCOC(=O)c1cc(C#N)c(N2CC(C(=O)NS(=O)(=O)Cc3ccccc3)C2)nc1CO [Example 37, Ethyl6-{3-[(benzylsulfonyl)carbamoyl]azetidin-1-yl}-5-cyano-2-(hydroxymethyl)nicotinate] | 0.047
CCOC(=O)c1cc(Cl)c(N2CCC(C(=O)NS(=O)(=O)Cc3ccccc3)CC2)nc1SC [Example 54, Ethyl6-{4-[(benzylsulfonyl)carbamoyl]piperidin-1-yl}-5-chloro-2-(methylthio)nicotinate] | 0.039
COc1nc(N2CCC(C(=O)NS(=O)(=O)Cc3ccccc3)CC2)c(C#N)cc1C(=O)OC(C)C [Example 60, Isopropyl6-{4-[(benzylsulfonyl)carbamoyl]piperidin-1-yl}-5-cyano-2-methoxynicotinate] | 0.027
CCOCc1nc(N2CC(C(=O)NS(=O)(=O)Cc3ccccc3)C2)c(C#N)cc1C(=O)OCC [Example 33, Ethyl6-{3-[(benzylsulfonyl)carbamoyl]azetidin-1-yl}-5-cyano-2-(ethoxymethyl)nicotinate] | 0.069
COc1nc(N2CCC(C(=O)NS(=O)(=O)Cc3ccc(Cl)cc3)CC2)c(C#N)cc1C(=O)OC(C)C [Example 55, Isopropyl6-(4-{[(4-chlorobenzyl)sulfonyl]carbamoyl}piperidin-1-yl)-5-cyano-2-methoxynicotinate] | 0.011
CCOC(=O)c1cc(Cl)c(N2CCC(C(=O)NS(=O)(=O)Cc3ccccc3)CC2)nc1Cl [Example 59, Ethyl6-{4-[(benzylsulfonyl)carbamoyl]piperidin-1-yl}-2,5-dichloronicotinate] | 0.033

Further lines, results first:

IC50 [µM] | SMILES
0.005 | CCOC(=O)c1cc(C#N)c(N2CC(C(=O)NS(=O)(=O)Cc3ccc(Cl)cc3Cl)C2)nc1OC [Example 28, Ethyl5-cyano-6-(3-{[(2,4-dichlorobenzyl)sulfonyl]carbamoyl}azetidin-1-yl)-2-methoxynicotinate]
0.012 | CCOC(=O)c1cc(C#N)c(N2CC(C(=O)NS(=O)(=O)Cc3ccccc3Cl)C2)nc1OC [Example 22, Ethyl6-(3-{[(2-chlorobenzyl)sulfonyl]carbamoyl}azetidin-1-yl)-5-cyano-2-methoxynicotinate]
0.035 | CCOC(=O)c1cc(C#N)c(N2CC(C(=O)NS(=O)(=O)Cc3ccc(F)c(F)c3)C2)nc1OC [Example 27, Ethyl5-cyano-6-(3-{[(3,4-difluorobenzyl)sulfonyl]carbamoyl}azetidin-1-yl)-2-methoxynicotinate]
0.087 | CCOC(=O)c1cc(C#N)c(N2CC(C(=O)NS(=O)(=O)Cc3ccc(F)cc3F)C2)nc1OCC [Example 41, Ethyl5-cyano-6-(3-{[(2,4-difluorobenzyl)sulfonyl]carbamoyl}azetidin-1-yl)-2-ethoxynicotinate]
0.044 | CCOC(=O)c1cc(C#N)c(N2CC(C(=O)NS(=O)(=O)Cc3cccc(F)c3)C2)nc1OC [Example 23, Ethyl5-cyano-6-(3-{[(3-fluorobenzyl)sulfonyl]carbamoyl}azetidin-1-yl)-2-methoxynicotinate]
0.008 | CCOC(=O)c1cc(C#N)c(N2CCC(C(=O)NS(=O)(=O)Cc3ccc(F)cc3F)CC2)nc1OC [Example 16, Ethyl5-cyano-6-(4-{[(2,4-difluorobenzyl)sulfonyl]carbamoyl}piperidin-1-yl)-2-methoxynicotinate]
0.009 | CCOC(=O)c1cc(C#N)c(N2CC(C(=O)NS(=O)(=O)Cc3ccc(F)cc3Cl)C2)nc1OC [Example 30, Ethyl6-(3-{[(2-chloro-4-fluorobenzyl)sulfonyl]carbamoyl}azetidin-1-yl)-5-cyano-2-methoxynicotinate]
0.083 | CCOC(=O)c1cc(C#N)c(N2CC(C(=O)NS(=O)(=O)Cc3cccc(F)c3F)C2)nc1OC [Example 32, Ethyl5-cyano-6-(3-{[(2,3-difluorobenzyl)sulfonyl]carbamoyl}azetidin-1-yl)-2-methoxynicotinate]
0.012 | CCOC(=O)c1cc(C#N)c(N2CCC(C(=O)NS(=O)(=O)Cc3ccccc3)CC2)nc1OCC [Example 3, Ethyl6-{4-[(benzylsulfonyl)carbamoyl]piperidin-1-yl}-5-cyano-2-ethoxynicotinate]
0.031 | CCOC(=O)c1cc(C#N)c(N2CC(C(=O)NS(=O)(=O)Cc3ccccc3F)C2)nc1OCC [Example 40, Ethyl5-cyano-2-ethoxy-6-(3-{[(2-fluorobenzyl)sulfonyl]carbamoyl}azetidin-1-yl)nicotinate]
